Results: paper PMC9774939, “Optimization of Pyrazole Compounds as Antibiotic Adjuvants Active against Colistin- and Carbapenem-Resistant Acinetobacter baumannii” (Antibiotics, 2022)
Each block holds one compound with its values, some of them ahead of it.

Columns and labels:
Escherichia coli CCUG^T = test: MAC determination in the presence of subinhibitory colistin; assay type: cell-based; design: key to MAC Eco: -: No synergistic activity; settings: for MAC Eco: in the presence of 0.5 × MIC colistin; for MIC/MAC Ratio Eco: minimal ratio of MIC of compound alone to MAC with 0.5 × MIC colistin
Method: (§1) The minimum inhibitory concentration (MIC) and minimum bactericidal concentration (MBC) of the compounds were determined in triplicate using Mueller–Hinton broth and a bacterial inoculum of 5 × 10^5 CFU/mL, as recommended by the CLSI [26]. The minimum antibacterial concentration (MAC) of the compounds was determined in the presence of a fixed and subinhibitory concentration of colistin (as mentioned above).

[1] = system: Acinetobacter baumannii ATCC 17978; test: as above; assay type: cell-based; design: key to MAC Aba: -: No synergistic activity; settings: for MAC Aba: in the presence of 0.5 × MIC colistin; for MIC/MAC Ratio Aba: minimal ratio of MIC of compound alone to MAC with 0.5 × MIC colistin
Method: as §1

[2] = system: Klebsiella pneumoniae ATCC 13833; test: as above; assay type: cell-based; settings: for MAC Kpn: in the presence of 0.5 × MIC colistin; for MIC/MAC Ratio Kpn: minimal ratio of MIC of compound alone to MAC with 0.5 × MIC colistin
Method: as §1

Compound: N#Cc1c(C(=O)NC23CC4CC(CC(C4)C2)C3)nn(-c2ccccc2)c1-n1cccc1
melting point: 227 to 229 °C

Compound: CN1CCN(C(=O)c2cnn(C)c2-n2cccc2)CC1 [Compound 3, (4-Methylpiperazin-1-yl)[1-methyl-5-(1H-pyrrol-1-yl)-1H-pyrazol-4-yl]methanone]
melting point: 109 to 111 °C

Compound: CN1CCN(C(=O)c2cnn(-c3ccccc3)c2-n2cccc2)CC1 [Compound 4, (4-Methylpiperazin-1-yl)[1-phenyl-5-(1H-pyrrol-1-yl)-1H-pyrazol-4-yl]methanone]
melting point: 156 to 158 °C

Compound: O=C(NN1CCCCC1)c1cnn(-c2ccccc2)c1-n1cccc1 [Compound 5, 1-Phenyl-N-(piperidin-1-yl)-5-(1H-pyrrol-1-yl)-1H-pyrazole-4-carboxamide]
melting point: 165 to 167 °C

Compound: O=C(c1cnn(-c2ccccc2)c1-n1cccc1)N1CCN(c2ncccn2)CC1 [Compound 7, [1-Phenyl-5-(1H-pyrrol-1-yl)-1H-pyrazol-4-yl][4-(pyrimidin-2-yl)piperazin-1-yl]methanone]
melting point: 218 to 219 °C

Compound: COC(=O)CNC(=O)c1cnn(-c2ccccc2)c1-n1cccc1 [Compound 11, Methyl [[[1-Phenyl-5-(1H-pyrrol-1-yl)-1H-pyrazol-4-yl]carbonyl]amino]acetate]
melting point: 139 to 141 °C

Compound: CCOC(=O)[C@H](C)NC(=O)c1cnn(-c2ccccc2)c1-n1cccc1 [Compound 12, Ethyl (S)-2-[[[1-Phenyl-5-(1H-pyrrol-1-yl)-1H-pyrazol-4-yl]carbonyl]amino]propanoate]
melting point: 90 to 92 °C

Compound: CCOC(=O)[C@@H](NC(=O)c1cnn(-c2ccccc2)c1-n1cccc1)C(C)C [Compound 13, Ethyl (S)-3-Methyl-2-[[[1-phenyl-5-(1H-pyrrol-1-yl)-1H-pyrazol-4-yl]carbonyl]amino]butanoate]
MAC Eco (Escherichia coli CCUG^T): 64 µg/mL
MIC/MAC Ratio Eco (Escherichia coli CCUG^T): 8
MAC Aba [1]: -
MAC Kpn [2]: 32 µg/mL
MIC/MAC Ratio Kpn [2]: 16
melting point: 75 to 78 °C

Compound: CCOC(=O)[C@H](C)NC(=O)CNC(=O)c1cnn(-c2ccccc2)c1-n1cccc1 [Compound 18, N-[N-[[1-Phenyl-5-(1H-pyrrol-1-yl)-1H-pyrazol-4-yl]carbonyl]glycyl]-L-alanine Ethyl Ester]
melting point: 116 to 117 °C

Compound: CC(C)(C)OC(=O)Nc1c(C(=O)NCc2ccc(Br)cc2)cnn1-c1ccccc1 [Compound 20, N-(4-Bromobenzyl)-5-(tert-butoxycarbonylamino)-1-phenyl-1H-pyrazole-4-carboxamide]
MAC Eco (Escherichia coli CCUG^T): -
MAC Aba [1]: 64 µg/mL
MIC/MAC Ratio Aba [1]: 8
MAC Kpn [2]: 64 µg/mL
MIC/MAC Ratio Kpn [2]: 8
melting point: 175 to 176 °C

Compound: CC(C)(C)OC(=O)Nc1c(C(=O)NCc2ccc(Br)cc2)cnn1-c1ccc([N+](=O)[O-])cc1 [Compound 21, N-(4-Bromobenzyl)-5-(tert-butoxycarbonylamino)-1-(4-nitrophenyl)-1H-pyrazole-4-carboxamide]
melting point: 169 to 171 °C

Compound: CC(C)(C)OC(=O)Nc1c(C(=O)NCc2ccc(-c3ccc(OC(F)(F)F)cc3)cn2)cnn1-c1ccc([N+](=O)[O-])cc1 [Compound 22, 5-(tert-Butoxycarbonylamino)-1-(4-nitrophenyl)-N-[[5-(4-trifluoromethoxyphenyl)pyridin-2-yl]methyl]-1H-pyrazole-4-carboxamide]
MAC Eco (Escherichia coli CCUG^T): -
MAC Aba [1]: 64 µg/mL
MIC/MAC Ratio Aba [1]: 8
MAC Kpn [2]: 64 µg/mL
MIC/MAC Ratio Kpn [2]: 8
melting point: 197 to 199 °C

Compound: O=C(NC12CC3CC(CC(O)(C3)C1)C2)c1cc(-n2cccc2)n(-c2ccccc2)n1 [Compound 23, N-(Adamantan-3-ol-1-yl)-1-phenyl-5-(1H-pyrrol-1-yl)-1H-pyrazole-3-carboxamide]
melting point: 217 to 221 °C

Compound: CC(C)(C)OC(=O)[C@H](Cc1ccccc1)NC(=O)c1nn(-c2ccccc2)c(-n2cccc2)c1C#N [Compound 25, tert-Butyl (S)-3-Phenyl-2-[[[4-cyano-1-phenyl-5-(1H-pyrrol-1-yl)-1H-pyrazol-3-yl]carbonyl]amino]propanoate]
melting point: 93 to 94 °C

Compound: CCOC(=O)N1CCN(C(=O)c2nn(-c3ccccc3)c(-n3cccc3)c2C)CC1 [Compound 26, (4-Ethoxycarbonylpiperazin-1-yl)[4-methyl-1-phenyl-5-(1H-pyrrol-1-yl)-1H-pyrazol-3-yl]methanone]
melting point: 130 to 131 °C

Compound: Cc1c(C(=O)NC23CC4CC(CC(O)(C4)C2)C3)nn(-c2ccccc2)c1-n1cccc1 [Compound 27, N-(Adamantan-3-ol-1-yl)-4-methyl-1-phenyl-5-(1H-pyrrol-1-yl)-1H-pyrazole-3-carboxamide]
MAC Eco (Escherichia coli CCUG^T): 32 µg/mL
MIC/MAC Ratio Eco (Escherichia coli CCUG^T): 16
MAC Aba [1]: -
MAC Kpn [2]: 32 µg/mL
MIC/MAC Ratio Kpn [2]: 16
melting point: 137 to 138 °C

Compound: Cc1c(C(=O)N2CCN(C)CC2)nn(-c2ccc(Cl)cc2)c1-n1cccc1 [Compound 28, [1-(4-Chlorophenyl)-4-methyl-5-(1H-pyrrol-1-yl)-1H-pyrazol-3-yl](4-methylpiperazin-1-yl)methanone]
MAC Eco (Escherichia coli CCUG^T): 64 µg/mL
MIC/MAC Ratio Eco (Escherichia coli CCUG^T): 8
MAC Aba [1]: 64 µg/mL
MIC/MAC Ratio Aba [1]: 8
MAC Kpn [2]: 64 µg/mL
MIC/MAC Ratio Kpn [2]: 8
melting point: 178 to 182 °C

Compound: Cc1c(C(=O)N2CCOCC2)nn(-c2ccc(Cl)cc2)c1-n1cccc1 [Compound 30, [1-(4-Chlorophenyl)-4-methyl-5-(1H-pyrrol-1-yl)-1H-pyrazol-3-yl](morpholin-4-yl)methanone]
melting point: 174 to 177 °C

Compound: Cc1c(C(=O)Nc2nc(-c3ccc(F)cc3)cs2)nn(-c2ccc(Cl)c(Cl)c2)c1-n1cccc1 [Compound 37, 1-(3,4-Dichlorophenyl)-N-[4-(4-fluorophenyl)thiazol-2-yl]-4-methyl-5-(1H-pyrrol-1-yl)-1H-pyrazole-3-carboxamide]
melting point: 207 to 210 °C

Compound: Cc1c(C(=O)NCc2ccc3c(c2)OCO3)nn(-c2ccc(Cl)c(Cl)c2)c1-n1c(C)ccc1C [Compound 38, N-(Benzo[d][1,3]dioxol-5-ylmethyl)-1-(3,4-dichlorophenyl)-4-methyl-5-(2,5-dimethyl-1H-pyrrol-1-yl)-1H-pyrazole-3-carboxamide]
melting point: 141 to 145 °C

The next lines start with results.

melting point: 148 to 151 °C
Compound: Cc1c(C(=O)NCc2ccc(F)cc2)nn(-c2ccc(Cl)c(Cl)c2)c1-n1cccc1

melting point: 197 to 198 °C
Compound: O=C(Nc1ccc(Cl)cc1)c1cnn(-c2ccccc2)c1-n1cccc1 [Compound 6, N-(4-Chlorophenyl)-1-phenyl-5-(1H-pyrrol-1-yl)-1H-pyrazole-4-carboxamide]

melting point: 144 to 148 °C
Compound: Cc1c(C(=O)NCc2ccc3c(c2)OCO3)nn(-c2ccc(Cl)cc2)c1-n1cccc1 [Compound 29, N-(Benzo[d][1,3]dioxol-5-ylmethyl)-1-(4-chlorophenyl)-4-methyl-5-(1H-pyrrol-1-yl)-1H-pyrazole-3-carboxamide]

MIC/MAC Ratio Aba [1]: 16
MIC/MAC Ratio Kpn [2]: 32
Compound: Cc1c(C(=O)N(CCO)Cc2ccccc2)nn(-c2ccc(Cl)cc2)c1-n1cccc1 [Compound 31, N-Benzyl-1-(4-chlorophenyl)-N-(2-hydroxyethyl)-4-methyl-5-(1H-pyrrol-1-yl)-1H-pyrazole-3-carboxamide]
MAC Eco (Escherichia coli CCUG^T): 32 µg/mL
MIC/MAC Ratio Eco (Escherichia coli CCUG^T): 16
MAC Aba [1]: 32 µg/mL
MAC Kpn [2]: 16 µg/mL

melting point: 168 to 170 °C
Compound: CCOC(=O)c1ccc(NC(=O)c2nn(-c3ccc(Cl)cc3)c(-n3cccc3)c2C)cc1 [Compound 32, Ethyl 4-[[[1-(4-Chlorophenyl)-4-methyl-5-(1H-pyrrol-1-yl)-1H-pyrazol-3-yl]carbonyl]amino]benzoate]

melting point: 189 to 193 °C
Compound: Cc1c(C(=O)NCc2ccncc2)nn(-c2ccc(Cl)cc2)c1-n1cccc1 [Compound 33, 1-(4-Chlorophenyl)-4-methyl-N-(pyridin-4-ylmethyl)-5-(1H-pyrrol-1-yl)-1H-pyrazole-3-carboxamide]

melting point: 104 to 108 °C
Compound: Cc1c(C(=O)N(C)Cc2ccccc2)nn(-c2ccc(Cl)cc2)c1-n1cccc1 [Compound 34, N-Benzyl-1-(4-chlorophenyl)-N,4-dimethyl-5-(1H-pyrrol-1-yl)-1H-pyrazole-3-carboxamide]

melting point: 85 to 88 °C
Compound: N#Cc1c(C(=O)NCc2ccncc2)nn(-c2ccc(Cl)cc2)c1-n1cccc1 [Compound 35, 1-(4-Chlorophenyl)-4-cyano-N-(pyridin-4-ylmethyl)-5-(1H-pyrrol-1-yl)-1H-pyrazole-3-carboxamide]

melting point: 158 to 160 °C
Compound: COC(=O)c1cccc(NC(=O)c2nn(-c3ccc(Cl)cc3)c(-n3cccc3)c2C)c1 [Compound 41, Methyl 3-[[[1-(4-Chlorophenyl)-4-methyl-5-(1H-pyrrol-1-yl)-1H-pyrazol-3-yl]carbonyl]amino]benzoate]

melting point: 217 to 219 °C
Compound: COC(=O)c1ccccc1NC(=O)c1nn(-c2ccc(Cl)cc2)c(-n2cccc2)c1C [Compound 43, Methyl 2-[[[1-(4-Chlorophenyl)-4-methyl-5-(1H-pyrrol-1-yl)-1H-pyrazol-3-yl]carbonyl]amino]benzoate]

melting point: 238 to 239 °C
Compound: Cc1c(C(=O)Nc2ccc(S(N)(=O)=O)cc2)nn(-c2ccc(Cl)cc2)c1-n1cccc1 [Compound 46, 1-(4-Chlorophenyl)-4-methyl-5-(1H-pyrrol-1-yl)-N-(4-sulfamoylphenyl)-1H-pyrazole-3-carboxamide]

melting point: 102 to 105 °C
Compound: CSc1ccc(NC(=O)c2nn(-c3ccc(Cl)cc3)c(-n3cccc3)c2C)cc1 [Compound 48, 1-(4-Chlorophenyl)-N-(4-methylthiophenyl)-4-methyl-5-(1H-pyrrol-1-yl)-1H-pyrazole-3-carboxamide]
